Assay [1] relates to CD4. Conditions: literature; cited from earlier work.
Assay [2] relates to HSV-1 virus. Conditions: Peptide J alone; Taylor et al.; cited from earlier work.
In assay [3] the test system is BM cells (iDCs). In words: Flow cytometry phenotyping of BM cells (iDCs) incubated with LEAPS heteroconjugates or LPS. The format is cell-based, BALB/c mice. The conditions noted are these: 14.5 micromoles per well (about 10^6 cells), incubation 24, 48 or 72 hours. (In flow cytometry, cells or beads pass a laser one at a time.)

Take “DGQEEKAGVVSTGLI (H-DGQEEKAGVVSTGLI-NH2) [CEL-1000, ICBL peptide derived from the β-chain of MHC II]”: the “binding to CD4” value in assay [1] is reported as “bind to CD4”.
With “DLLKNGERIEKVE [J Peptide, ICBL derived from amino acids 38-50 of the β-2-microglobulin chain of the MHC I molecule]”, the protection against infection result in assay [2] is given as “does not induce protection against infection”.
For lipopolysaccharide [LPS], the “upregulation for CD80, CD86 and MHC II compared to untreated cells” value in assay [3] is reported as “significant upregulation”.

The values above are taken from patent US10179174B2, “Method for inducing an immune response and formulations thereof” (priority 2011, dated 2019).
